Data as given in US8802597B2, “Herbicidal pyrimidines” (E I du Pont de Nemours and Company, priority 2003, dated 2014).

Columns and labels:
Assay type in all cases: in vivo
[1] = tested on: kochia (Kochia scoparia); assay: Test D pre/postemergence; details: scale 0 to 100 (100 = complete control)
In short: (§1)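 Visual injury score, 0–100 (0 = no effect, 100 = complete control), vs untreated controls after 15–25 d in controlled environment. Pre- and postemergence treatments run in parallel; postemergence at 1–4 leaf, 2–18 cm. Compounds in non-phytotoxic solvent with surfactant.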

[2] = tested on: wheat (Triticum aestivum); assay: Test D pre/postemergence; details: scale 0 to 100 (100 = complete control)
In short: as §1

[3] = tested on: wild buckwheat (Polygonum convolvulus); assay: Test D pre/postemergence; details: scale 0 to 100 (100 = complete control)
In short: as §1

[4] = tested on: common chickweed (Stellaria media); assay: Test D pre/postemergence; details: scale 0 to 100 (100 = complete control)
In short: as §1

[5] = tested on: wild mustard (Sinapis arvensis); assay: Test D pre/postemergence; details: scale 0 to 100 (100 = complete control)
In short: as §1

[6] = tested on: Russian thistle (Salsola kali); assay: Test D pre/postemergence; details: scale 0 to 100 (100 = complete control)
In short: as §1

[7] = tested on: pigweed (Amaranthus retroflexus); assay: Test D pre/postemergence; details: scale 0 to 100 (100 = complete control)
In short: as §1

[8] = tested on: catchweed bedstraw (galium; Galium aparine); assay: Test D pre/postemergence; details: scale 0 to 100 (100 = complete control)
In short: as §1

[9] = tested on: lambsquarters (Chenopodium album); assay: Test D pre/postemergence; details: scale 0 to 100 (100 = complete control)
In short: as §1

[10] = tested on: dallisgrass (Paspalum dilatatum); assay: Test G pre/postemergence; details: Preemergence
From the text: (§2) Seeds or nutlets of plant species selected from bermudagrass (Cynodon dactylon), Surinam grass (Brachiaria decumbens), large crabgrass (Digitaria sanguinalis), green foxtail (Setaria viridis), goosegrass (Eleusine indica), johnsongrass (Sorghum halepense), kochia (Kochia scoparia), pitted morningglory (Ipomoea lacunosa), purple nutsedge (Cyperus rotundus), common ragweed (Ambrosia elatior), black mustard (Brassica nigra), guineagrass (Panicum maximum), dallisgrass (Paspalum dilatatum), barnyardgrass (Echinochloa crus-galli), southern sandbur (Cenchrus echinatus), common sowthistle (Sonchus oleraceous), prickly sida (Sida spinosa), Italian ryegrass (Lolium multiflorum), common purslane (Portulaca oleracea), broadleaf signalgrass (Brachiaria platyphylla), common groundsel (Senecio vulgaris), common chickweed (Stellaria media), tropical spiderwort (Commelina benghalensis), annual bluegrass (Poa annua), downy bromegrass (Bromus tectorum), itchgrass (Rottboellia cochinchinensis), quackgrass (Elytrigia repens), Canada horseweed (Conyza canadensis), field bindweed (Convolvulus arvensis), spanishneedles (Bidens bipinnata), common mallow (Malva sylvestris), and Russian thistle (Salsola kali) were planted and treated preemergence with test chemicals formulated in a non-phytotoxic solvent mixture which included a surfactant.
(§3) At the same time, plants selected from these weed species were treated with postemergence applications of some of the test chemicals formulated in the same manner. Plants ranged in height from 2 to 18 cm (1- to 4-leaf stage) for postemergence treatments. Treated plants and controls were maintained in a greenhouse for 12 to 21 days, after which time all species were compared to controls and visually evaluated.
(§4) Plant response ratings, summarized in Table G, are based on a scale of 0 to 100 where 0 is no effect and 100 is complete control. A dash (-) response means no test result.

[11] = tested on: tropical spiderwort (Commelina benghalensis); assay: Test G pre/postemergence; details: Preemergence
From the text: as §2, §3, §4

[12] = tested on: black mustard (Brassica nigra); assay: Test G pre/postemergence; details: Preemergence
From the text: as §2, §3, §4

[13] = tested on: goosegrass (Eleusine indica); assay: Test G pre/postemergence; details: Preemergence
From the text: as §2, §3, §4

COC(=O)c1nc(C2CC2)nc(N)c1Cl [Compound 9, methyl 6-amino-5-chloro-2-cyclopropyl-4-pyrimidinecarboxylate]
60: Plant response rating, Wheat ([2]; Preemergence, 16 g ai/ha) | Plant response rating, Buckwheat, Wild ([3]; Preemergence, 16 g ai/ha) | Plant response rating, Chickweed ([4]; Postemergence, 16 g ai/ha) | Plant response rating, Mustard, Wild ([5]; Preemergence, 16 g ai/ha) | Plant response rating, Goosegrass ([13]; 125 g ai/ha, scale 0-100)
75: Plant response rating, Wheat ([2]; Preemergence, 31 g ai/ha) | Plant response rating, Wheat ([2]; Preemergence, 62 g ai/ha) | Plant response rating, Black Mustard ([12]; 125 g ai/ha, scale 0-100)
10: Plant response rating, Dallisgrass ([10]; 62 g ai/ha, scale 0-100) | Plant response rating, Goosegrass ([13]; 62 g ai/ha, scale 0-100)
90: Plant response rating, Wheat ([2]; Postemergence, 62 g ai/ha) | Plant response rating, Russian Thistle ([6]; Postemergence, 31 g ai/ha)
50: Plant response rating, Wheat ([2]; Postemergence, 16 g ai/ha)
98: Plant response rating, Kochia ([1]; Preemergence, 31 g ai/ha)
65: Plant response rating, Buckwheat, Wild ([3]; Postemergence, 16 g ai/ha) | Plant response rating, Chickweed ([4]; Preemergence, 16 g ai/ha) | Plant response rating, Mustard, Wild ([5]; Postemergence, 16 g ai/ha) | Plant response rating, Russian Thistle ([6]; Postemergence, 16 g ai/ha) | Plant response rating, Pigweed ([7]; Postemergence, 16 g ai/ha) | Plant response rating, Pigweed ([7]; Preemergence, 16 g ai/ha) | Plant response rating, Lambsquarters ([9]; Preemergence, 16 g ai/ha)
70: Plant response rating, Kochia ([1]; Preemergence, 16 g ai/ha) | Plant response rating, Mustard, Wild ([5]; Preemergence, 31 g ai/ha) | Plant response rating, Dallisgrass ([10]; 125 g ai/ha, scale 0-100) | Plant response rating, Black Mustard ([12]; 62 g ai/ha, scale 0-100)
80: Plant response rating, Wheat ([2]; Postemergence, 31 g ai/ha) | Plant response rating, Buckwheat, Wild ([3]; Postemergence, 31 g ai/ha) | Plant response rating, Mustard, Wild ([5]; Postemergence, 31 g ai/ha) | Plant response rating, Mustard, Wild ([5]; Postemergence, 62 g ai/ha) | Plant response rating, Pigweed ([7]; Preemergence, 31 g ai/ha) | Plant response rating, Dallisgrass ([10]; 250 g ai/ha, scale 0-100)
95: Plant response rating, Chickweed ([4]; Preemergence, 31 g ai/ha) | Plant response rating, Mustard, Wild ([5]; Postemergence, 125 g ai/ha) | Plant response rating, Lambsquarters ([9]; Postemergence, 16 g ai/ha) | Plant response rating, Goosegrass ([13]; 250 g ai/ha, scale 0-100) | Plant response rating, Goosegrass ([13]; 500 g ai/ha, scale 0 to 100)
100: Plant response rating, Kochia ([1]; Postemergence, 31 g ai/ha) | Plant response rating, Kochia ([1]; Postemergence, 62 g ai/ha) | Plant response rating, Kochia ([1]; Postemergence, 125 g ai/ha) | Plant response rating, Kochia ([1]; Preemergence, 62 g ai/ha) | Plant response rating, Kochia ([1]; Preemergence, 125 g ai/ha) | Plant response rating, Wheat ([2]; Postemergence, 125 g ai/ha) | Plant response rating, Buckwheat, Wild ([3]; Postemergence, 62 g ai/ha) | Plant response rating, Buckwheat, Wild ([3]; Postemergence, 125 g ai/ha) | Plant response rating, Buckwheat, Wild ([3]; Preemergence, 62 g ai/ha) | Plant response rating, Buckwheat, Wild ([3]; Preemergence, 125 g ai/ha) | Plant response rating, Chickweed ([4]; Postemergence, 31 g ai/ha) | Plant response rating, Chickweed ([4]; Postemergence, 62 g ai/ha) | Plant response rating, Chickweed ([4]; Postemergence, 125 g ai/ha) | Plant response rating, Chickweed ([4]; Preemergence, 62 g ai/ha) | Plant response rating, Chickweed ([4]; Preemergence, 125 g ai/ha) | Plant response rating, Russian Thistle ([6]; Postemergence, 62 g ai/ha) | Plant response rating, Russian Thistle ([6]; Postemergence, 125 g ai/ha) | Plant response rating, Russian Thistle ([6]; Preemergence, 16 g ai/ha) | Plant response rating, Russian Thistle ([6]; Preemergence, 31 g ai/ha) | Plant response rating, Russian Thistle ([6]; Preemergence, 62 g ai/ha) | Plant response rating, Russian Thistle ([6]; Preemergence, 125 g ai/ha) | Plant response rating, Pigweed ([7]; Postemergence, 31 g ai/ha) | Plant response rating, Pigweed ([7]; Postemergence, 62 g ai/ha) | Plant response rating, Pigweed ([7]; Postemergence, 125 g ai/ha) | Plant response rating, Pigweed ([7]; Preemergence, 62 g ai/ha) | Plant response rating, Pigweed ([7]; Preemergence, 125 g ai/ha) | Plant response rating, Galium ([8]; Postemergence, 16 g ai/ha) | Plant response rating, Galium ([8]; Postemergence, 31 g ai/ha) | Plant response rating, Galium ([8]; Postemergence, 62 g ai/ha) | Plant response rating, Galium ([8]; Postemergence, 125 g ai/ha) | Plant response rating, Galium ([8]; Preemergence, 31 g ai/ha) | Plant response rating, Galium ([8]; Preemergence, 62 g ai/ha) | Plant response rating, Galium ([8]; Preemergence, 125 g ai/ha) | Plant response rating, Lambsquarters ([9]; Postemergence, 31 g ai/ha) | Plant response rating, Lambsquarters ([9]; Postemergence, 62 g ai/ha) | Plant response rating, Lambsquarters ([9]; Postemergence, 125 g ai/ha) | Plant response rating, Lambsquarters ([9]; Preemergence, 31 g ai/ha) | Plant response rating, Lambsquarters ([9]; Preemergence, 62 g ai/ha) | Plant response rating, Lambsquarters ([9]; Preemergence, 125 g ai/ha) | Plant response rating, Dallisgrass ([10]; 500 g ai/ha, scale 0 to 100) | Plant response rating, Spiderwort ([11]; 62 g ai/ha, scale 0-100) | Plant response rating, Spiderwort ([11]; 125 g ai/ha, scale 0-100) | Plant response rating, Spiderwort ([11]; 250 g ai/ha, scale 0-100) | Plant response rating, Spiderwort ([11]; 500 g ai/ha, scale 0 to 100) | Plant response rating, Black Mustard ([12]; 250 g ai/ha, scale 0-100) | Plant response rating, Black Mustard ([12]; 500 g ai/ha, scale 0 to 100)
85: Plant response rating, Kochia ([1]; Postemergence, 16 g ai/ha) | Plant response rating, Buckwheat, Wild ([3]; Preemergence, 31 g ai/ha) | Plant response rating, Mustard, Wild ([5]; Preemergence, 62 g ai/ha) | Plant response rating, Mustard, Wild ([5]; Preemergence, 125 g ai/ha) | Plant response rating, Galium ([8]; Preemergence, 16 g ai/ha)
